In the CheMixHub viscosity set:

Experiment: xn = mol fraction of the nth substance listed

O=C1CCCCC1 + C1COCCO1
viscosity [mPa·s], 101 kPa
Conditions | x1 = 0.099 | x1 = 0.2022 | x1 = 0.31 | x1 = 0.4227 | x1 = 0.5406 | x1 = 0.6641 | x1 = 0.728 | x1 = 0.8607 | x1 = 0.9295
293.15 K | 1.323 | 1.352 | 1.396 | 1.463 | 1.56 | 1.694 | 1.782 | 2.003 | 2.148
298.15 K | 1.214 | 1.239 | 1.281 | 1.341 | 1.429 | 1.544 | 1.626 | 1.816 | 1.941
303.15 K | 1.12 | 1.142 | 1.184 | 1.235 | 1.324 | 1.417 | 1.489 | 1.657 | 1.769
308.15 K | 1.036 | 1.06 | 1.094 | 1.145 | 1.224 | 1.315 | 1.373 | 1.513 | 1.618
313.15 K | 0.9598 | 0.9803 | 1.017 | 1.063 | 1.143 | 1.212 | 1.263 | 1.39 | 1.497

CCOCC + C=C(C)C(=O)OC
298.15 K, 101.3 kPa
Conditions | viscosity [mPa·s]
x2 = 0.0454 | 0.249
x2 = 0.1483 | 0.281
x2 = 0.249 | 0.314
x2 = 0.3495 | 0.349
x2 = 0.4486 | 0.385
x2 = 0.4908 | 0.4
x2 = 0.5479 | 0.421
x2 = 0.6504 | 0.459
x2 = 0.7501 | 0.496
x2 = 0.8488 | 0.532
x2 = 0.947 | 0.567

C=C(C)[C@@H]1CC=C(C)CC1 + C=CC(C)(O)CCC=C(C)C
viscosity [mPa·s], 101.33 kPa
Conditions | x1 = 0.0422 | x1 = 0.1332 | x1 = 0.2273 | x1 = 0.3523 | x1 = 0.4816 | x1 = 0.562 | x1 = 0.6389 | x1 = 0.7679 | x1 = 0.8478 | x1 = 0.9236
298.15 K | 4.062 | 3.237 | 2.695 | 2.072 | 1.626 | 1.429 | 1.282 | 1.101 | 1.013 | 0.933
313.15 K | 2.37 | 2.025 | 1.731 | 1.427 | 1.196 | 1.086 | 0.998 | 0.877 | 0.814 | 0.755

C=C(C)[C@@H]1CC=C(C)CC1 + CC12CCC(CC1)C(C)(C)O2
viscosity [mPa·s], 101.33 kPa
Conditions | 298.15 K | 313.15 K
x1 = 0.0715 | 2.345 | 1.741
x1 = 0.1121 | 2.23 | 1.664
x1 = 0.2018 | 1.995 | 1.504
x1 = 0.327 | 1.704 | 1.305
x1 = 0.4614 | 1.439 | 1.123
x1 = 0.5584 | 1.279 | 1.011
x1 = 0.6401 | 1.162 | 0.929
x1 = 0.7336 | 1.05 | 0.851
x1 = 0.8226 | 0.963 | 0.785
x1 = 0.8648 | 0.928 | 0.759
x1 = 0.9499 | 0.872 | 0.716
